What follows are compounds tested on HDF (normal cells) (assay: ATP level assay (CellTiter-Glo), percent of control). Conditions: 2 h; compound alone, 100 uM, two hour incubation, control DMSO; read-out: POC (percent of control) HDF.
Type: cell-based

| Compound | activity at 100 µM [%] |
| --- | --- |
| Cc1ccc(S(=O)(=O)NCc2ccc3c(cnn3C)c2)cc1 [Compound 9, 4-methyl-N-[(1-methyl-1H-indazol-5-yl)methyl]benzenesulfonamide] | 86.4 |

Same assay, conditions: compound 100 uM + 2DG (about 10-20 mM), two hour incubation

| Compound | POC (percent of control) HDF |
| --- | --- |
| Cc1ccc(S(=O)(=O)NCc2ccc3c(cnn3C)c2)cc1 [Compound 9, 4-methyl-N-[(1-methyl-1H-indazol-5-yl)methyl]benzenesulfonamide] | 88.5% of control |

Same assay, conditions: compound 100 uM + rotenone (approximately 1.25 μM), two hour incubation

| Compound | POC (percent of control) HDF |
| --- | --- |
| Cc1ccc(S(=O)(=O)NCc2ccc3c(cnn3C)c2)cc1 [Compound 9, 4-methyl-N-[(1-methyl-1H-indazol-5-yl)methyl]benzenesulfonamide] | 107.6% of control |

These compounds were tested on T47D (breast cancer) in the same assay as above. Conditions: Homo sapiens, T47D, 2 h; compound alone, 100 uM, two hour incubation, control DMSO; read-out: POC (percent of control) T47D.
Type: cell-based

| Compound | activity at 100 µM [%] |
| --- | --- |
| Cc1ccc(S(=O)(=O)NCc2ccc3c(cnn3C)c2)cc1 [Compound 9, 4-methyl-N-[(1-methyl-1H-indazol-5-yl)methyl]benzenesulfonamide] | 50.3 |

Same assay, conditions: compound 100 uM + 2DG (about 10-20 mM), two hour incubation

| Compound | POC (percent of control) T47D |
| --- | --- |
| Cc1ccc(S(=O)(=O)NCc2ccc3c(cnn3C)c2)cc1 [Compound 9, 4-methyl-N-[(1-methyl-1H-indazol-5-yl)methyl]benzenesulfonamide] | 58.9% of control |

Same assay, conditions: compound 100 uM + rotenone (approximately 1.25 μM), two hour incubation

| Compound | POC (percent of control) T47D |
| --- | --- |
| Cc1ccc(S(=O)(=O)NCc2ccc3c(cnn3C)c2)cc1 [Compound 9, 4-methyl-N-[(1-methyl-1H-indazol-5-yl)methyl]benzenesulfonamide] | 103.5% of control |

These compounds were tested on HeLa (cervical cancer) in the same assay as above. Conditions: Homo sapiens, HeLa, 2 h; compound alone, 100 uM, two hour incubation, control DMSO; read-out: POC (percent of control) HeLa.
Type: cell-based

| Compound | activity at 100 µM [%] |
| --- | --- |
| Cc1ccc(S(=O)(=O)NCc2ccc3c(cnn3C)c2)cc1 [Compound 9, 4-methyl-N-[(1-methyl-1H-indazol-5-yl)methyl]benzenesulfonamide] | 97.3 |

Same assay, conditions: compound 100 uM + 2DG (about 10-20 mM), two hour incubation

| Compound | POC (percent of control) HeLa |
| --- | --- |
| Cc1ccc(S(=O)(=O)NCc2ccc3c(cnn3C)c2)cc1 [Compound 9, 4-methyl-N-[(1-methyl-1H-indazol-5-yl)methyl]benzenesulfonamide] | 80.5% of control |

Same assay, conditions: compound 100 uM + rotenone (approximately 1.25 μM), two hour incubation

| Compound | POC (percent of control) HeLa |
| --- | --- |
| Cc1ccc(S(=O)(=O)NCc2ccc3c(cnn3C)c2)cc1 [Compound 9, 4-methyl-N-[(1-methyl-1H-indazol-5-yl)methyl]benzenesulfonamide] | 89.8% of control |

The compounds below were run on NCI-H196 (lung cancer) in the same assay as above. Conditions: NCI-H196, 2 h; compound alone, 100 uM, two hour incubation, control DMSO; read-out: POC (percent of control) NCI-H196.
Type: cell-based

| Compound | activity at 100 µM [%] |
| --- | --- |
| Cc1ccc(S(=O)(=O)NCc2ccc3c(cnn3C)c2)cc1 [Compound 9, 4-methyl-N-[(1-methyl-1H-indazol-5-yl)methyl]benzenesulfonamide] | 93.1 |

Same assay, conditions: compound 100 uM + 2DG (about 10-20 mM), two hour incubation

| Compound | POC (percent of control) NCI-H196 |
| --- | --- |
| Cc1ccc(S(=O)(=O)NCc2ccc3c(cnn3C)c2)cc1 [Compound 9, 4-methyl-N-[(1-methyl-1H-indazol-5-yl)methyl]benzenesulfonamide] | 86.1% of control |

Same assay, conditions: compound 100 uM + rotenone (approximately 1.25 μM), two hour incubation

| Compound | POC (percent of control) NCI-H196 |
| --- | --- |
| Cc1ccc(S(=O)(=O)NCc2ccc3c(cnn3C)c2)cc1 [Compound 9, 4-methyl-N-[(1-methyl-1H-indazol-5-yl)methyl]benzenesulfonamide] | 117.7% of control |

These compounds were tested on H293 (kidney cancer) in the same assay as above. Conditions: 2 h; compound alone, 100 uM, two hour incubation, control DMSO; read-out: POC (percent of control) H293.
Type: cell-based

| Compound | activity at 100 µM [%] |
| --- | --- |
| Cc1ccc(S(=O)(=O)NCc2ccc3c(cnn3C)c2)cc1 [Compound 9, 4-methyl-N-[(1-methyl-1H-indazol-5-yl)methyl]benzenesulfonamide] | 83.3 |

Same assay, conditions: compound 100 uM + 2DG (about 10-20 mM), two hour incubation

| Compound | POC (percent of control) H293 |
| --- | --- |
| Cc1ccc(S(=O)(=O)NCc2ccc3c(cnn3C)c2)cc1 [Compound 9, 4-methyl-N-[(1-methyl-1H-indazol-5-yl)methyl]benzenesulfonamide] | 76.6% of control |

Same assay, conditions: compound 100 uM + rotenone (approximately 1.25 μM), two hour incubation

| Compound | POC (percent of control) H293 |
| --- | --- |
| Cc1ccc(S(=O)(=O)NCc2ccc3c(cnn3C)c2)cc1 [Compound 9, 4-methyl-N-[(1-methyl-1H-indazol-5-yl)methyl]benzenesulfonamide] | 88.5% of control |

The compounds below were run on SkBr3 (breast cancer) in the same assay as above. Conditions: Homo sapiens, SK-BR-3, 2 h; compound alone, 100 uM, two hour incubation, control DMSO; read-out: POC (percent of control) SkBr3.
Type: cell-based

| Compound | activity at 100 µM [%] |
| --- | --- |
| Cc1ccc(S(=O)(=O)NCc2ccc3c(cnn3C)c2)cc1 [Compound 9, 4-methyl-N-[(1-methyl-1H-indazol-5-yl)methyl]benzenesulfonamide] | 74.1 |

Same assay, conditions: compound 100 uM + 2DG (about 10-20 mM), two hour incubation

| Compound | POC (percent of control) SkBr3 |
| --- | --- |
| Cc1ccc(S(=O)(=O)NCc2ccc3c(cnn3C)c2)cc1 [Compound 9, 4-methyl-N-[(1-methyl-1H-indazol-5-yl)methyl]benzenesulfonamide] | 89.9% of control |

Same assay, conditions: compound 100 uM + rotenone (approximately 1.25 μM), two hour incubation

| Compound | POC (percent of control) SkBr3 |
| --- | --- |
| Cc1ccc(S(=O)(=O)NCc2ccc3c(cnn3C)c2)cc1 [Compound 9, 4-methyl-N-[(1-methyl-1H-indazol-5-yl)methyl]benzenesulfonamide] | 115.5% of control |

The compounds below were run on MCF7 (breast cancer) in the same assay as above. Conditions: Homo sapiens, MCF7, 2 h; compound alone, 100 uM, two hour incubation, control DMSO; read-out: POC (percent of control) MCF7.
Type: cell-based

| Compound | activity at 100 µM [%] |
| --- | --- |
| Cc1ccc(S(=O)(=O)NCc2ccc3c(cnn3C)c2)cc1 [Compound 9, 4-methyl-N-[(1-methyl-1H-indazol-5-yl)methyl]benzenesulfonamide] | 117 |

Same assay, conditions: compound 100 uM + 2DG (about 10-20 mM), two hour incubation

| Compound | POC (percent of control) MCF7 |
| --- | --- |
| Cc1ccc(S(=O)(=O)NCc2ccc3c(cnn3C)c2)cc1 [Compound 9, 4-methyl-N-[(1-methyl-1H-indazol-5-yl)methyl]benzenesulfonamide] | 75.8% of control |

Same assay, conditions: compound 100 uM + rotenone (approximately 1.25 μM), two hour incubation

| Compound | POC (percent of control) MCF7 |
| --- | --- |
| Cc1ccc(S(=O)(=O)NCc2ccc3c(cnn3C)c2)cc1 [Compound 9, 4-methyl-N-[(1-methyl-1H-indazol-5-yl)methyl]benzenesulfonamide] | 95.1% of control |

The compounds below were run on BxPC3 (pancreatic cancer) in the same assay as above. Conditions: Homo sapiens, BXPC-3, 2 h; compound alone, 100 uM, two hour incubation, control DMSO; read-out: POC (percent of control) BxPC3.
Type: cell-based

| Compound | activity at 100 µM [%] |
| --- | --- |
| Cc1ccc(S(=O)(=O)NCc2ccc3c(cnn3C)c2)cc1 [Compound 9, 4-methyl-N-[(1-methyl-1H-indazol-5-yl)methyl]benzenesulfonamide] | 114 |

Same assay, conditions: compound 100 uM + 2DG (about 10-20 mM), two hour incubation

| Compound | POC (percent of control) BxPC3 |
| --- | --- |
| Cc1ccc(S(=O)(=O)NCc2ccc3c(cnn3C)c2)cc1 [Compound 9, 4-methyl-N-[(1-methyl-1H-indazol-5-yl)methyl]benzenesulfonamide] | 57.6% of control |

Same assay, conditions: compound 100 uM + rotenone (approximately 1.25 μM), two hour incubation

| Compound | POC (percent of control) BxPC3 |
| --- | --- |
| Cc1ccc(S(=O)(=O)NCc2ccc3c(cnn3C)c2)cc1 [Compound 9, 4-methyl-N-[(1-methyl-1H-indazol-5-yl)methyl]benzenesulfonamide] | 118.5% of control |

What follows are compounds tested on MCF10A (non-cancerous breast) in the same assay as above. Conditions: Homo sapiens, MCF-10A, 2 h; compound alone, 100 uM, two hour incubation, control DMSO; read-out: POC (percent of control) MCF10A.
Type: cell-based

| Compound | activity at 100 µM [%] |
| --- | --- |
| Cc1ccc(S(=O)(=O)NCc2ccc3c(cnn3C)c2)cc1 [Compound 9, 4-methyl-N-[(1-methyl-1H-indazol-5-yl)methyl]benzenesulfonamide] | 89.6 |

Same assay, conditions: compound 100 uM + 2DG (about 10-20 mM), two hour incubation

| Compound | POC (percent of control) MCF10A |
| --- | --- |
| Cc1ccc(S(=O)(=O)NCc2ccc3c(cnn3C)c2)cc1 [Compound 9, 4-methyl-N-[(1-methyl-1H-indazol-5-yl)methyl]benzenesulfonamide] | 88.3% of control |

Same assay, conditions: compound 100 uM + rotenone (approximately 1.25 μM), two hour incubation

| Compound | POC (percent of control) MCF10A |
| --- | --- |
| Cc1ccc(S(=O)(=O)NCc2ccc3c(cnn3C)c2)cc1 [Compound 9, 4-methyl-N-[(1-methyl-1H-indazol-5-yl)methyl]benzenesulfonamide] | 123.7% of control |

Each compound was assayed on MDA-MB (breast cancer) in the same assay as above. Conditions: 2 h; compound alone, 100 uM, two hour incubation, control DMSO; read-out: POC (percent of control) MDA-MB.
Type: cell-based

| Compound | activity at 100 µM [%] |
| --- | --- |
| Cc1ccc(S(=O)(=O)NCc2ccc3c(cnn3C)c2)cc1 [Compound 9, 4-methyl-N-[(1-methyl-1H-indazol-5-yl)methyl]benzenesulfonamide] | 95.6 |

Same assay, conditions: compound 100 uM + 2DG (about 10-20 mM), two hour incubation

| Compound | POC (percent of control) MDA-MB |
| --- | --- |
| Cc1ccc(S(=O)(=O)NCc2ccc3c(cnn3C)c2)cc1 [Compound 9, 4-methyl-N-[(1-methyl-1H-indazol-5-yl)methyl]benzenesulfonamide] | 91.7% of control |

Same assay, conditions: compound 100 uM + rotenone (approximately 1.25 μM), two hour incubation

| Compound | POC (percent of control) MDA-MB |
| --- | --- |
| Cc1ccc(S(=O)(=O)NCc2ccc3c(cnn3C)c2)cc1 [Compound 9, 4-methyl-N-[(1-methyl-1H-indazol-5-yl)methyl]benzenesulfonamide] | 114% of control |

These compounds were tested on PC3 (prostate cancer) in the same assay as above. Conditions: 2 h; compound alone, 100 uM, two hour incubation, control DMSO; read-out: POC (percent of control) PC3.
Type: cell-based

| Compound | activity at 100 µM [%] |
| --- | --- |
| Cc1ccc(S(=O)(=O)NCc2ccc3c(cnn3C)c2)cc1 [Compound 9, 4-methyl-N-[(1-methyl-1H-indazol-5-yl)methyl]benzenesulfonamide] | 90.4 |

Same assay, conditions: compound 100 uM + 2DG (about 10-20 mM), two hour incubation

| Compound | POC (percent of control) PC3 |
| --- | --- |
| Cc1ccc(S(=O)(=O)NCc2ccc3c(cnn3C)c2)cc1 [Compound 9, 4-methyl-N-[(1-methyl-1H-indazol-5-yl)methyl]benzenesulfonamide] | 89.3% of control |

Same assay, conditions: compound 100 uM + rotenone (approximately 1.25 μM), two hour incubation

| Compound | POC (percent of control) PC3 |
| --- | --- |
| Cc1ccc(S(=O)(=O)NCc2ccc3c(cnn3C)c2)cc1 [Compound 9, 4-methyl-N-[(1-methyl-1H-indazol-5-yl)methyl]benzenesulfonamide] | 101.7% of control |

From US20230266302A1, “SYNTHESIS AND USE OF N-BENZYL SULFONAMIDES” (THE UNIVERSITY OF TULSA, priority 2020, published 2023)
